Measurements from patent publication US20250163059A1, “HETEROCYCLIC KINASE INHIBITORS” (Incyte Corporation, priority 2023, published 2025).

Columns and labels:
[1] = biological target: T1, catalytic domain (JH1) of JAK2 protein (Homo sapiens, UniProt O60674); assay: JAK2 (JH1) Enzymatic Assay at ATP=Km (30 μM), TR-FRET; format: biochemical; conditions: 30 μM ATP (=Km), 60 min at 25° C., read-out: V617F ENZ 30 μM
T1 construct: phosphorylated on the tyrosine residue by catalytic domain (JH1) of JAK2 protein; purchased BPS 40450
Description: Example A. JAK2 (JH1) Enzymatic Assay at ATP=Km (30 μM)
Inhibitor potency was determined in TR-FRET assay, which measures HTRF signal generated as a result of Eu-labeled anti-phosphotyrosine antibody binding to Biotin-labeled peptide, phosphorylated on the tyrosine residue by catalytic domain (JH1) of JAK2 protein in the presence of ATP-Mg and Allophycocyanin-streptavidin (APC-SA). JH1 domain of JAK2 protein was purchased from BPS (#40450), Eu-W1204-labeled Anti-Phosphotyrosine Antibody (PY-20) and SureLight Allophycocyanin-streptavidin were purchased from PerkinElmer (#AD0067 and #AD0201). Peptide Biot-EQEDEPEGDYFEWLEES-amide (SEQ ID NO.: 1) was purchased from Quality Controlled Biochemicals, MA (Q307-166). Assay buffer consisted of 50 mM Tris, pH=7.5, 10 mM MgCl2, 0.01% Brij-35, 0.1% BSA, 1 mM EGTA, 5% Glycerol and 5 mM DTT. To assess the inhibition of the enzymatic activity, compound was serially diluted in DMSO and a volume of 0.1 μL was transferred to the wells of a black regular volume 384-well plate (Greiner #781076) using Echo Liquid Handler (Labcyte Inc.). Positive and Negative control wells contained 0.1 μL of DMSO.
Enzyme (catalytic domain JH1 of JAK2) was diluted in assay buffer, and the Multidrop Combi liquid handler (Thermo Scientific) was used to dispense 10 μL to each well (except positive control wells, to which 10 μL of assay buffer were dispensed instead of protein).
Plate was centrifuged and reaction was started by addition of 10 μL of substrate solution containing biotinylated peptide and ATP to all wells. Plate was again centrifuged and enzymatic reaction was allowed to proceed for 60 min. at 25° C. Final concentrations in the assay were as follows: 0.02 nM protein, 30 uM ATP, 0.5 uM biotinylated peptide. Reaction was stopped by addition of 10 μL of solution, containing 45 mM EDTA, 144 nM APC/225 nM Streptavidin, and 4.5 nM Eu-Ab in detection buffer: 50 mM Tris, pH=7.8, 150 mM NaCl, 0.5 mg/ml BSA.
Plate was centrifuged and incubated for 30 min. at room temperature. HTRF signal was measured on PHERAstar plate reader instrument (BMG Labtech) with excitation at 337 nm and emissions at 620 nm and 665 nm. Data analysis tools integrated in Genedata Screener software were used to analyze the results. Raw data was normalized to percent of vehicle (DMSO) Negative control, after subtracting no-enzyme Positive inhibitor control. The IC50 values were derived by fitting the data to a four parameter logistic equation producing a sigmoidal dose-response curve using the following equation: Y=Bottom+(Top−Bottom)/(1+10^((Log IC50−X)*Hill slope)) where X is the logarithm of inhibitor concentration and Y is the response.

[2] = biological target: T2, pseudo-kinase domain (JH2) of human V617F mutant JAK2 (Homo sapiens, UniProt O60674, F794H/V617F/W659A/W777A); assay: JAK2 LanthaScreen JH2-V617F Binding Assay; conditions: 50 nM Fluorescent JAK2-JH2 Tracer, 1 hour at 25° C., read-out: JH2 BIND V617F
T2 construct: pseudo-kinase domain (JH2, amino-acids 536-812 with 3 surface mutations W659A, W777A, F794H); purchased BPS Bioscience 79498; host or cells: baculovirus expression system
Description: Example B. JAK2 LanthaScreen JH2-V617F Binding Assay
JAK2 JH2-V617F binding assay utilizes pseudo-kinase domain (JH2, amino-acids 536-812 with 3 surface mutations W659A, W777A, F794H) of human V617F mutant JAK2 expressed as C-terminal His-Avi-tagged, biotinylated protein in a baculovirus expression system (BPS Bioscience, Catalog #79498). The assay was conducted in black 384-well polystyrene plates in a final reaction volume of 20 μL. JAK2 JH2-V617F (0.26 nM) was incubated with compounds (100 nL serially diluted in DMSO) in the presence of 50 nM Fluorescent JAK2-JH2 Tracer (MedChem Express Catalog #HY-102055) and 0.25 nM Streptavidin-Tb cryptate (Cisbio Part #610SATLB) in assay buffer (50 mM Tris, pH=7.5, 10 mM MgCl2, 0.01% Brij-35, 0.1% BSA, 1 mM EGTA, 5% Glycerol and 5 mM DTT). Non-specific binding was accessed in the presence of 2 mM ATP. After incubation for 1 hour at 25° C., LanthaScreen signals were read on a PHERAstar FS plate reader (BMG LABTECH). Data was analyzed with IDBS XLfit and GraphPad Prism 5.0 software using a four parameter dose response curve to determine IC50 for each compound.

T2 sequence (O60674 536-812 V617F/W659A/W777A/F794H): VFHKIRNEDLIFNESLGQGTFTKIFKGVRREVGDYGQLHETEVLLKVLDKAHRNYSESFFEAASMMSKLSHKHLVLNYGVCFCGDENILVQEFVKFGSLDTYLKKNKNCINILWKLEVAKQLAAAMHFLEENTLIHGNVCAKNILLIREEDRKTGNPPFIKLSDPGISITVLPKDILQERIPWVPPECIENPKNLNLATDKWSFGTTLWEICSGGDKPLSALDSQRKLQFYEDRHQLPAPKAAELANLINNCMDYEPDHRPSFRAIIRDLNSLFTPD
T1 sequence (O60674 849-1124 limits assumed): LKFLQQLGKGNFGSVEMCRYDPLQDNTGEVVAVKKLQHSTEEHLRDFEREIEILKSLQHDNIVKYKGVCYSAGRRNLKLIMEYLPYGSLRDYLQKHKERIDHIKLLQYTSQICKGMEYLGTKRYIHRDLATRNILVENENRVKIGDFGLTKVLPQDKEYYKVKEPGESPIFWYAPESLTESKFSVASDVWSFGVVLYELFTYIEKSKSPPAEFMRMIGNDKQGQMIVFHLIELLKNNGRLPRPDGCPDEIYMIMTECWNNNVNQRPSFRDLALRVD

Structure (SMILES)	IC50 [1]	IC50 [2]
CNc1ncc(-c2cccc(-c3cnn(C4CN(Cc5cccc(C(=O)N(C)C)n5)C4)c3)c2OC)c2cc(NC(=O)C3CC3)ncc12 [Example 1, 6-((3-(4-(3-(6-(Cyclopropanecarboxamido)-1-(methylamino)-2,7-naphthyridin-4-yl)-2-methoxyphenyl)-1H-pyrazol-1-yl)azetidin-1-yl)methyl)-N,N-dimethylpicolinamide]	> 1000 nM	≤ 10 nM
CNc1ncc(-c2cccc(-c3cnn(C4CN(Cc5cccc(C(=O)N(C)C6CC6)n5)C4)c3)c2OC)c2cc(NC(=O)C3CC3)ncc12 [Example 2, 6-((3-(4-(3-(6-(Cyclopropane-carboxamido)-1-(methylamino)-2,7-naphthyridin-4-yl)-2-methoxyphenyl)-1H-pyrazol-1-yl)azetidin-1-yl)methyl)-N-cyclopropyl-N-methyl-picolinamide]	> 1000 nM	≤ 10 nM
CNc1ncc(-c2cccc(-c3cnn(C4CN(Cc5cccc(C(=O)N(C)CC(F)(F)F)n5)C4)c3)c2OC)c2cc(NC(=O)C3CC3)ncc12 [Example 3, 6-((3-(4-(3-(6-(Cyclopropane-carboxamido)-1-(methylamino)-2,7-naphthyridin-4-yl)-2-methoxyphenyl)-1H-pyrazol-1-yl)azetidin-1-yl)methyl)-N-methyl-N-(2,2,2-trifluoroethyl) picolinamide]	> 1000 nM	≤ 10 nM
CNc1ncc(-c2cccc(-c3cnn(C4CN(Cc5cccc(C(=O)N6CCCC6)n5)C4)c3)c2OC)c2cc(NC(=O)C3CC3)ncc12 [Example 4, N-(5-(2-Methoxy-3-(1-(1-((6-(pyrrolidine-1-carbonyl)pyridin-2-yl)methyl)azetidin-3-yl)-1H-pyrazol-4-yl)phenyl)-8-(methylamino)-2,7-naphthyridin-3-yl)cyclopropane-carboxamide]	> 1000 nM	≤ 10 nM
CNc1ncc(-c2cccc(-c3cnn(C4CN(Cc5csc(C(=O)N(C)CC(F)(F)F)n5)C4)c3)c2OC)c2cc(NC(=O)C3CC3)ncc12 [Example 5, 4-((3-(4-(3-(6-(Cyclopropane-carboxamido)-1-(methylamino)-2,7-naphthyridin-4-yl)-2-methoxyphenyl)-1H-pyrazol-1-yl)azetidin-1-yl)methyl)-N-methyl-N-(2,2,2-trifluoroethyl) thiazole-2-carboxamide]	> 1000 nM	10 to 100 nM
CNc1ncc(-c2cccc(-c3cnn(C4CN(Cc5cccc(S(C)(=O)=O)n5)C4)c3)c2OC)c2cc(NC(=O)C3CC3)ncc12 [Example 6, N-(5-(2-Methoxy-3-(1-(1-((6-(methylsulfonyl)pyridin-2-yl)methyl)azetidin-3-yl)-1H-pyrazol-4-yl)phenyl)-8-(methylamino)-2,7-naphthyridin-3 yl)cyclopropane carboxamide]	> 1000 nM	≤ 10 nM
CNc1ncc(-c2cccc(-c3cnn(C4CN(Cc5cccc(C(F)F)n5)C4)c3)c2OC)c2cc(NC(=O)C3CC3)ncc12 [Example 7, N-(5-(3-(1-(1-((6-(Difluoromethyl)pyridin-2-yl)methyl)azetidin-3-yl)-1H-pyrazol-4-yl)-2-methoxyphenyl)-8-(methylamino)-2,7-naphthyridin-3-yl)cyclopropanecarboxamide]	> 1000 nM	≤ 10 nM
CNc1ncc(-c2cccc(-c3cnn(C4CN(C(=O)c5cccc(C(=O)N(C)C)n5)C4)c3)c2OC)c2cc(NC(=O)C3CC3)ncc12 [Example 8, 6-(3-(4-(3-(6-(Cyclopropanecarboxamido)-1-(methylamino)-2,7-naphthyridin-4-yl)-2-methoxyphenyl)-1H-pyrazol-1-yl)azetidine-1-carbonyl)-N,N-dimethylpicolinamide]	> 1000 nM	≤ 10 nM
CNc1ncc(-c2cccc(-c3cnn(C4CCN(Cc5ccccn5)CC4)c3)c2OC)c2cc(NC(=O)C3CC3)ncc12 [Example 9, N-(5-(2-Methoxy-3-(1-(1-(pyridin-2-ylmethyl)piperidin-4-yl)-1H-pyrazol-4-yl)phenyl)-8-(methylamino)-2,7-naphthyridin-3-yl)cyclopropanecarboxamide]	> 1000 nM	10 to 100 nM
CNc1ncc(-c2cccc(-c3cnn(C(C)C(=O)O)c3)c2OC)c2cc(NC(=O)C3CC3)ncc12 (stereo not drawn) [Example 10, 2-(4-(3-(6-(Cyclopropanecarboxamido)-1-(methylamino)-2,7-naphthyridin-4-yl)-2-methoxyphenyl)-1H-pyrazol-1-yl)propanoic acid]	> 1000 nM	10 to 100 nM
CNc1ncc(-c2cccc(-c3cnn(C4CN(Cc5cccc(C(=O)N(C)C)n5)C4)c3)c2OC)c2cc(NC(=O)C3CC3)nnc12 [Example 11, 6-((3-(4-(3-(3-(Cyclopropanecarboxamido)-8-(methylamino)pyrido[3,4-c]pyridazin-5-yl)-2-methoxyphenyl)-1H-pyrazol-1-yl)azetidin-1-yl)methyl)-N,N-dimethylpicolinamide]	> 1000 nM	≤ 10 nM
CNc1ncc(-c2cccc(-c3cnn(C4CN(Cc5cccc(C(=O)N(C)C6CC6)n5)C4)c3)c2OC)c2cc(NC(=O)C3CC3)nnc12 [Example 12, 6-((3-(4-(3-(3-(Cyclopropanecarboxamido)-8-(methylamino)pyrido[3,4-c]pyridazin-5-yl)-2-methoxyphenyl)-1H-pyrazol-1-yl)azetidin-1-yl)methyl)-N-cyclopropyl-N-methylpicolinamide]	> 1000 nM	≤ 10 nM
CNc1ncc(-c2cccc(-c3cnn(C4CN(Cc5cccc(C(=O)N(C)CC6CC6)n5)C4)c3)c2OC)c2cc(NC(=O)C3CC3)nnc12 [Example 13, 6-((3-(4-(3-(3-(Cyclopropane-carboxamido)-8-(methylamino)pyrido[3,4-c]pyridazin-5-yl)-2-methoxy-phenyl)-1H-pyrazol-1-yl)azetidin-1-yl)methyl)-N-(cyclopropyl-methyl)-N-methyl-picolinamide]	> 1000 nM	≤ 10 nM
CNc1ncc(-c2cccc(-c3cnn(C4CN(Cc5cccc(C(=O)N(C)CC(F)(F)F)n5)C4)c3)c2OC)c2cc(NC(=O)C3CC3)nnc12 [Example 14, 6-((3-(4-(3-(3-(Cyclopropane-carboxamido)-8-(methylamino)pyrido[3,4-c]pyridazin-5-yl)-2-methoxy-phenyl)-1H-pyrazol-1-yl)azetidin-1-yl)methyl)-N-methyl-N-(2,2,2-trifluoroethyl) picolinamide]	> 1000 nM	≤ 10 nM
CNc1ncc(-c2cccc(-c3cnn(C4CN(Cc5cccc(C(=O)N6CCCC6)n5)C4)c3)c2OC)c2cc(NC(=O)C3CC3)nnc12 [Example 15, N-(5-(2-Methoxy-3-(1-(1-((6-(pyrrolidine-1-carbonyl)pyridin-2-yl)methyl)azetidin-3-yl)-1H-pyrazol-4-yl)phenyl)-8-(methylamino)pyrido[3,4-c]pyridazin-3-yl)cyclopropane-carboxamide]	> 1000 nM	≤ 10 nM
